PubChem BioAssay AID256 (DTP/NCI, 2004)
Where “and” joins values, the source holds several entries; their conditions need not be identical. Identical values can stand only once. Toxic doses and inconclusive results are not listed.

Test system: CD2F1 mice, L1210 leukemia ip, survival T/C
Assay: NCI In Vivo Anticancer Drug Screen. Data for tumor model L1210 Leukemia (intraperitoneal) in CD2F1 (CDF1) mice
Conditions: higher = longer survival
Outline: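 Antitumor effect is scored in animals hosting a serially transplanted tumor. Values compare compound-dosed animals against vehicle-only controls as a simple quotient.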

[1] = endpoint: mean survival time, dose: 2.5 mg/kg/injection, schedule: Q01DX009 (ip), vehicle: saline with Tween-80
[2] = endpoint: mean survival time, dose: 5.0 mg/kg/injection, schedule: Q01DX009 (ip), vehicle: saline with Tween-80
[3] = endpoint: mean survival time, dose: 10.0 mg/kg/injection, schedule: Q01DX009 (ip), vehicle: saline with Tween-80
[4] = endpoint: mean survival time, dose: 400.0 mg/kg/injection, schedule: Q04DX003 (ip), vehicle: saline with Tween-80

In the case of `CN1CC(NC(=O)N(CCCl)N=O)CC2c3cccc4c3c(cn4N=O)CC21` (centres undefined), the T/C (endpoint: mean survival time, dose: 12.5 mg/kg/injection, schedule: Q01DX001 (ip), vehicle: other) was 105 % of control, the T/C (endpoint: mean survival time, dose: 25.0 mg/kg/injection, schedule: Q01DX001 (ip), vehicle: other) was 117 % of control and the T/C (endpoint: mean survival time, dose: 50.0 mg/kg/injection, schedule: Q01DX001 (ip), vehicle: other) was 121 % of control. The T/C (endpoint: mean survival time, dose: 200.0 mg/kg/injection, schedule: Q01DX001 (ip), vehicle: other) was 164 % of control and the T/C (endpoint: mean survival time, dose: 400.0 mg/kg/injection, schedule: Q01DX001 (ip), vehicle: other) was 289 % of control.

In the case of `[Cu+2].[NH-]C1(C(=O)O)CCCC1.[NH-]C1(C(=O)O)CCCC1`, the T/C [1] was 89 % of control, the T/C [2] was 100 % of control and the T/C (endpoint: mean survival time, dose: 5.0 mg/kg/injection, schedule: Q04DX003 (ip), vehicle: saline) was 91 % of control. The T/C [3] was 94 % of control.

`CCOC(=O)c1ccc(-c2ccc(C(=O)OCC)o2)o1` was tested, and the T/C (endpoint: mean survival time, dose: 50.0 mg/kg/injection, schedule: Q04DX002 (ip), vehicle: saline) was 101 % of control, the T/C (endpoint: mean survival time, dose: 100.0 mg/kg/injection, schedule: Q04DX002 (ip), vehicle: saline) was 93 % of control and the T/C (endpoint: mean survival time, dose: 200.0 mg/kg/injection, schedule: Q04DX002 (ip), vehicle: saline) was 97 % of control.

With `NC(=S)N/N=C/c1ccc(OC(=O)COc2ccc(Cl)cc2)cn1` the T/C (endpoint: mean survival time, dose: 88.0 mg/kg/injection, schedule: Q01DX009 (ip), vehicle: saline with Tween-80) was 173 % of control, the T/C (endpoint: mean survival time, dose: 100.0 mg/kg/injection, schedule: Q04DX002 (ip), vehicle: saline with Tween-80) was 103 % of control and 111 % of control and the T/C (endpoint: mean survival time, dose: 118.0 mg/kg/injection, schedule: Q01DX001 (ip), vehicle: saline with Tween-80) was 109 % of control. The T/C (endpoint: mean survival time, dose: 118.0 mg/kg/injection, schedule: Q04DX003 (ip), vehicle: saline with Tween-80) was 150 % of control, the T/C (endpoint: mean survival time, dose: 132.0 mg/kg/injection, schedule: Q01DX009 (ip), vehicle: saline with Tween-80) was 214 % of control and the T/C (endpoint: mean survival time, dose: 178.0 mg/kg/injection, schedule: Q01DX001 (ip), vehicle: saline with Tween-80) was 118 % of control. For the same compound, the T/C (endpoint: mean survival time, dose: 178.0 mg/kg/injection, schedule: Q04DX003 (ip), vehicle: saline with Tween-80) was 166 % of control, the T/C (endpoint: mean survival time, dose: 200.0 mg/kg/injection, schedule: Q04DX002 (ip), vehicle: saline with Tween-80) was 114 % of control and the T/C (endpoint: mean survival time, dose: 266.0 mg/kg/injection, schedule: Q01DX001 (ip), vehicle: saline with Tween-80) was 123 % of control. For the same compound, the T/C (endpoint: mean survival time, dose: 266.0 mg/kg/injection, schedule: Q04DX003 (ip), vehicle: saline with Tween-80) was 170 % of control, the T/C (endpoint: mean survival time, dose: 300.0 mg/kg/injection, schedule: Q01DX009 (ip), vehicle: saline with Tween-80) was 93 % of control and the T/C [4] was 181 % of control. The T/C (endpoint: mean survival time, dose: 600.0 mg/kg/injection, schedule: Q04DX003 (ip), vehicle: saline with Tween-80) was 150 % of control, the T/C (endpoint: median survival time, dose: 25.0 mg/kg/injection, schedule: Q01DX009 (ip), vehicle: saline with Tween-80) was 164 % of control and the T/C (endpoint: median survival time, dose: 50.0 mg/kg/injection, schedule: Q01DX009 (ip), vehicle: saline with Tween-80) was 188 % of control. The T/C (endpoint: median survival time, dose: 50.0 mg/kg/injection, schedule: Q01DX009 (ip), vehicle: saline) was 172 % of control, the T/C (endpoint: median survival time, dose: 88.0 mg/kg/injection, schedule: Q01DX009 (ip), vehicle: saline with Tween-80) was 178 % of control and the T/C (endpoint: median survival time, dose: 100.0 mg/kg/injection, schedule: Q01DX009 (ip), vehicle: saline with Tween-80) was 175 % of control and 180 % of control. The T/C (endpoint: median survival time, dose: 100.0 mg/kg/injection, schedule: Q01DX009 (ip), vehicle: saline) was 209 % of control, the T/C (endpoint: median survival time, dose: 133.0 mg/kg/injection, schedule: Q01DX009 (ip), vehicle: saline with Tween-80) was 178 % of control and the T/C (endpoint: median survival time, dose: 200.0 mg/kg/injection, schedule: Q01DX009 (ip), vehicle: saline with Tween-80) was 182 % of control and 184 % of control and 213 % of control. For the same compound, the T/C (endpoint: median survival time, dose: 200.0 mg/kg/injection, schedule: Q01DX009 (ip), vehicle: saline) was 172 % of control, the T/C (endpoint: median survival time, dose: 300.0 mg/kg/injection, schedule: Q01DX009 (ip), vehicle: saline with Tween-80) was 102 % of control and the T/C (endpoint: median survival time, dose: 400.0 mg/kg/injection, schedule: Q01DX009 (ip), vehicle: saline with Tween-80) was 108 % of control. The T/C (endpoint: median survival time, dose: 400.0 mg/kg/injection, schedule: Q01DX009 (ip), vehicle: saline) was 97 % of control.

With `C[n+]1cccc(NC(=O)c2ccc(NC(=O)C34CCC(C(=O)Nc5ccc(C(=O)Nc6ccc[n+](C)c6)cc5)(CC3)CC4)cc2)c1` the T/C [1] was 113 % of control, the T/C [2] was 123 % of control and 104 % of control and the T/C [3] was 110 % of control. For the same compound, the T/C (endpoint: mean survival time, dose: 20.0 mg/kg/injection, schedule: Q01DX009 (ip), vehicle: saline with Tween-80) was 160 % of control, the T/C (endpoint: mean survival time, dose: 80.0 mg/kg/injection, schedule: Q01DX009 (ip), vehicle: saline with Tween-80) was 108 % of control and the T/C (endpoint: median survival time, dose: 3.6 mg/kg/injection, schedule: Q01DX009 (ip), vehicle: saline with Tween-80) was 106 % of control. For the same compound, the T/C (endpoint: median survival time, dose: 16.67 mg/kg/injection, schedule: Q01DX009 (ip), vehicle: saline with Tween-80) was 264 % of control.

With `CCC1(O)C(=O)OCc2c1cc1n(c2=O)Cc2cc3ccc(C(=O)OC)cc3nc2-1` (centres undefined) the T/C (endpoint: median survival time, dose: 10.0 mg/kg/injection, schedule: Q04DX002 (ip), vehicle: saline with Tween-80) was 107 % of control, the T/C (endpoint: median survival time, dose: 20.0 mg/kg/injection, schedule: Q04DX002 (ip), vehicle: saline with Tween-80) was 100 % of control and the T/C (endpoint: median survival time, dose: 40.0 mg/kg/injection, schedule: Q04DX002 (ip), vehicle: saline with Tween-80) was 106 % of control. For the same compound, the T/C (endpoint: median survival time, dose: 80.0 mg/kg/injection, schedule: Q04DX002 (ip), vehicle: saline with Tween-80) was 107 % of control.

In the case of `O=S1(=O)CCCCC1`, the T/C (endpoint: mean survival time, dose: 37.5 mg/kg/injection, schedule: Q01DX009 (ip), vehicle: saline) was 98 % of control, the T/C (endpoint: mean survival time, dose: 75.0 mg/kg/injection, schedule: Q01DX001 (ip), vehicle: saline) was 104 % of control and the T/C (endpoint: mean survival time, dose: 75.0 mg/kg/injection, schedule: Q01DX009 (ip), vehicle: saline) was 98 % of control. The T/C (endpoint: mean survival time, dose: 75.0 mg/kg/injection, schedule: Q04DX003 (ip), vehicle: saline) was 93 % of control, the T/C (endpoint: mean survival time, dose: 150.0 mg/kg/injection, schedule: Q01DX001 (ip), vehicle: saline) was 96 % of control and the T/C (endpoint: mean survival time, dose: 150.0 mg/kg/injection, schedule: Q01DX009 (ip), vehicle: saline) was 98 % of control. For the same compound, the T/C (endpoint: mean survival time, dose: 150.0 mg/kg/injection, schedule: Q04DX003 (ip), vehicle: saline) was 96 % of control, the T/C (endpoint: mean survival time, dose: 300.0 mg/kg/injection, schedule: Q01DX001 (ip), vehicle: saline) was 95 % of control and the T/C (endpoint: mean survival time, dose: 300.0 mg/kg/injection, schedule: Q04DX003 (ip), vehicle: saline) was 100 % of control.

`c1cc2c(c(NC3=NCCCO3)c1)CCCC2` was tested, and the T/C (endpoint: mean survival time, dose: 12.5 mg/kg/injection, schedule: Q04DX003 (ip), vehicle: saline with Tween-80) was 97 % of control, the T/C (endpoint: mean survival time, dose: 25.0 mg/kg/injection, schedule: Q04DX003 (ip), vehicle: saline with Tween-80) was 106 % of control and the T/C (endpoint: mean survival time, dose: 50.0 mg/kg/injection, schedule: Q04DX003 (ip), vehicle: saline with Tween-80) was 101 % of control.

For `Cc1ncc(COP(=O)(O)O)c(C=NC(Cc2ccc(O)c(O)c2)C(=O)O)c1O.O.[Cu]` (centres undefined), the T/C (endpoint: mean survival time, dose: 12.5 mg/kg/injection, schedule: Q01DX001 (ip), vehicle: saline) was 100 % of control, the T/C (endpoint: mean survival time, dose: 25.0 mg/kg/injection, schedule: Q01DX001 (ip), vehicle: saline) was 93 % of control and the T/C (endpoint: mean survival time, dose: 50.0 mg/kg/injection, schedule: Q01DX001 (ip), vehicle: saline) was 86 % of control.

For `C(OC[C@H]1CC[C@@H](COCC2CO2)O1)C1CO1` (some centres undefined), the T/C (endpoint: mean survival time, dose: 65.0 mg/kg/injection, schedule: Q01DX009 (ip), vehicle: saline) was 107 % of control, the T/C (endpoint: mean survival time, dose: 108.0 mg/kg/injection, schedule: Q01DX009 (ip), vehicle: saline) was 112 % of control and the T/C (endpoint: mean survival time, dose: 178.0 mg/kg/injection, schedule: Q01DX001 (ip), vehicle: saline) was 100 % of control. For the same compound, the T/C (endpoint: mean survival time, dose: 180.0 mg/kg/injection, schedule: Q01DX009 (ip), vehicle: saline) was 124 % of control, the T/C (endpoint: mean survival time, dose: 267.0 mg/kg/injection, schedule: Q01DX001 (ip), vehicle: saline) was 103 % of control and the T/C (endpoint: mean survival time, dose: 400.0 mg/kg/injection, schedule: Q01DX001 (ip), vehicle: saline) was 109 % of control. The T/C (endpoint: mean survival time, dose: 600.0 mg/kg/injection, schedule: Q01DX001 (ip), vehicle: saline) was 121 % of control.

`CCOC(=O)C(C)C(=O)NCc1ccccc1` (centres undefined) was tested, and the T/C (endpoint: mean survival time, dose: 25.0 mg/kg/injection, schedule: Q01DX009 (ip), vehicle: Klucel (hydroxypropylcellulose) (HPC)) was 95 % of control, the T/C (endpoint: mean survival time, dose: 50.0 mg/kg/injection, schedule: Q01DX009 (ip), vehicle: Klucel (hydroxypropylcellulose) (HPC)) was 96 % of control and the T/C (endpoint: mean survival time, dose: 100.0 mg/kg/injection, schedule: Q01DX009 (ip), vehicle: Klucel (hydroxypropylcellulose) (HPC)) was 96 % of control. The T/C (endpoint: mean survival time, dose: 200.0 mg/kg/injection, schedule: Q01DX009 (ip), vehicle: Klucel (hydroxypropylcellulose) (HPC)) was 93 % of control and the T/C (endpoint: mean survival time, dose: 400.0 mg/kg/injection, schedule: Q01DX009 (ip), vehicle: Klucel (hydroxypropylcellulose) (HPC)) was 98 % of control.

In the case of `CCCCCCCCCCCC1CCCC(C)N1` (centres undefined), the T/C (endpoint: mean survival time, dose: 50.0 mg/kg/injection, schedule: Q04DX002 (ip), vehicle: saline with Tween-80) was 98 % of control.

For `CCOC(=O)c1cc(-c2ccc3ccccc3n2)c(O)c2cc3ccccc3nc12`, the T/C (endpoint: mean survival time, dose: 100.0 mg/kg/injection, schedule: Q04DX003 (ip), vehicle: saline with Tween-80) was 93 % of control, the T/C (endpoint: mean survival time, dose: 200.0 mg/kg/injection, schedule: Q04DX003 (ip), vehicle: saline with Tween-80) was 87 % of control and the T/C [4] was 90 % of control.
